Assay results as given in patent US20190209576A1 (AI Therapeutics, Inc., priority 2014, published 2019).

Key:
Type in all cases: cell-based
HCT116 cells = assay: Cell viability (CellTiterGlo), single agent, 120 h; settings: Homo sapiens, HCT-116, 120 h; HCT116, BRAF WT, 5 day assay
Description: (§1) For drug studies, HCT116, HT-29, RKO, HCT-15, SW1116, SW480 and SW620 cells were seeded at a density of 750, 8000, 300, 480, 1600, 2000, and 2000 cells per well, respectively, into 96 well plates in a final volume of 50 μL.
(§2) The apilimod used in these studies was apilimod dimesylate.
(§3) All drug dilutions were made up as a 2× stock and 50 μL added to appropriate wells. Cells were treated for 120 h before viability was assessed using CellTiterGlo® (Promega) where the relative luminescence of untreated cells was set to 100% viability and each drug concentration expressed as a percentage of untreated cells. EC50 values were determined using GraphPad Prism (GraphPad Software, Inc). Briefly, raw data was log transformed and then analyzed using nonlinear regression (curve fit) where the data were constrained (bottom=0, top=100).

HT-29 cells = assay: Cell viability (CellTiterGlo), single agent, 120 h; settings: Homo sapiens, HT-29, BRAF Mutant (V600E), 5 day assay
Description: as §1, §2, §3

HCT-15 cells = assay: Cell viability (CellTiterGlo), single agent, 120 h; settings: Homo sapiens, HCT-15, BRAF WT, 5 day assay
Description: as §1, §2, §3

RKO cells = assay: Cell viability (CellTiterGlo), single agent, 120 h; settings: Homo sapiens, BRAF Mutant (V600E), 5 day assay
Description: as §1, §2, §3

SW1116 cells = assay: Cell viability (CellTiterGlo), single agent, 120 h; settings: Homo sapiens, SW 1116, 120 h; SW1116, BRAF WT, 5 day assay
Description: as §1, §2, §3

SW620 cells = assay: Cell viability (CellTiterGlo), single agent, 120 h; settings: Homo sapiens, SW-620, 120 h; SW620, BRAF WT, 5 day assay
Description: as §1, §2, §3

SW480 cells = assay: Cell viability (CellTiterGlo), single agent, 120 h; settings: Homo sapiens, SW480, BRAF WT, 5 day assay
Description: as §1, §2, §3

colon cancer cell lines = assay: LAM-002 sensitivity (EC90) correlated with SNX10 expression; settings: 10 point dose response
Source text: Expression profiles were obtained from the public databases CCLE (Barretina, Caponigro, Stransky et al. The Cancer Cell Line Encyclopedia enables predictive modelling of anticancer drug sensitivity. Nature. 2012 Mar. 28; 483(7391):603-7) and COSMIC (Forbes SA1, Beare D2, Gunasekaran P2, et al. COSMIC: exploring the world's knowledge of somatic mutations in human cancer. Nucleic Acids Res. 2015 January; 43 (Database issue):D805-11). R statistical package (R Development Core Team (2008). R: A language and environment for statistical computing. R Foundation for Statistical Computing, Vienna, Austria. ISBN 3-900051-07-0) was used for the normalization of expression and the correlation analysis.
To determine LAM-002 sensitivity in colon cancer cell lines, the EC90 was calculated using a 10 point dose response as described above for EC50 determination. […] These findings support SNX10 expression as a predictive biomarker for LAM-002 sensitivity in colon cancer cells.

- EC50 (HCT116 cells): 10 nM
- EC50 (HT-29 cells): 19 nM
- EC50 (HCT-15 cells): 15 nM
- EC50 (SW1116 cells): 12 nM
- EC50 (SW620 cells): 9 nM
- EC50 (SW480 cells): 24 nM
SMILES: Cc1cccc(/C=N/Nc2cc(N3CCOCC3)nc(OCCc3ccccn3)n2)c1 [Apilimod]
- EC50 (RKO cells): 52 nM
- correlation between SNX10 expression and LAM-002 sensitivity (EC90) (colon cancer cell lines): colon cancer cells expressing higher levels of SNX10 are the most sensitive to LAM-002
